Values after ≈ are worked out from the molar mass of the structure shown.
Key:
Format in all cases: functional
[1] = system: Mycobacterium tuberculosis; experiment: Minimum inhibitory concentration against resistant Mycobacterium tuberculosis clinical isolates; N=9
[2] = system: Mycobacterium tuberculosis; experiment: Minimum inhibitory concentration against resistant Mycobacterium tuberculosis clinical isolates; N=9; Range 2-4
[3] = system: Mycobacterium tuberculosis; experiment: Minimum inhibitory concentration against resistant Mycobacterium tuberculosis clinical isolates; N=9; range=4-8
[4] = system: Mycobacterium tuberculosis; experiment: Minimum inhibitory concentration against resistant Mycobacterium tuberculosis clinical isolates; N=9; range=8-16
[5] = system: Mycobacterium tuberculosis; experiment: Minimum inhibitory concentration against resistant Mycobacterium tuberculosis clinical isolates; N=9; Range=8-16
[6] = system: Mycobacterium tuberculosis; experiment: Minimum inhibitory concentration against resistant Mycobacterium tuberculosis clinical isolates; N=9; Range=2-16

SMILES | MIC [1] | further results
O=C(CN(/N=C/c1ccccc1Cl)C(=O)c1ccncc1)N1CCN(c2ccc(F)cc2)CC1 | > 16 µg/mL | –
O=C(CN(/N=C/c1cccc(Cl)c1)C(=O)c1ccncc1)N1CCN(c2ccc([N+](=O)[O-])cc2)CC1 | > 16 µg/mL | –
O=C(CN(/N=C/c1ccc(Cl)cc1Cl)C(=O)c1ccncc1)N1CCN(c2ccc(Cl)cc2)CC1 | 16 µg/mL (≈ 30.1 µM) | –
O=C(CN(/N=C/c1ccc(Cl)cc1Cl)C(=O)c1ccncc1)N1CCN(c2ccc(F)cc2)CC1 | > 16 µg/mL | –
O=C(CN(/N=C/c1cccc(Cl)c1)C(=O)c1ccncc1)N1CCN(c2ccc(Cl)cc2)CC1 | > 16 µg/mL | –
COc1ccccc1N1CCN(C(=O)CN(/N=C/c2ccc(Cl)cc2)C(=O)c2ccncc2)CC1 | > 16 µg/mL | –
COc1ccccc1N1CCN(C(=O)CN(/N=C/c2ccccc2Cl)C(=O)c2ccncc2)CC1 | > 16 µg/mL | –
O=C(CN(/N=C/c1ccc(Cl)cc1)C(=O)c1ccncc1)N1CCN(c2ccc(Cl)cc2)CC1 | > 16 µg/mL | –
O=C(CN(/N=C/c1ccc(Cl)cc1Cl)C(=O)c1ccncc1)N1CCN(c2cccc(C(F)(F)F)c2)CC1 | > 16 µg/mL | –
O=C(CN(/N=C/c1ccccc1Cl)C(=O)c1ccncc1)N1CCN(c2ccccc2)CC1 | > 16 µg/mL | –
O=C(CN(/N=C/c1ccccc1Cl)C(=O)c1ccncc1)N1CCN(c2ccc([N+](=O)[O-])cc2)CC1 | > 16 µg/mL | –
Cc1cccc(N2CCN(C(=O)CN(/N=C/c3ccc(Cl)cc3Cl)C(=O)c3ccncc3)CC2)c1 | > 16 µg/mL | –
O=C(CN(/N=C/c1ccccc1Cl)C(=O)c1ccncc1)N1CCN(c2cccc(Cl)c2)CC1 | > 16 µg/mL | –
Cc1cccc(N2CCN(C(=O)CN(/N=C/c3ccccc3Cl)C(=O)c3ccncc3)CC2)c1 | > 16 µg/mL | –
O=C(CN(/N=C/c1ccc(Cl)cc1)C(=O)c1ccncc1)N1CCN(c2ccc(F)cc2)CC1 | > 16 µg/mL | –
COc1ccccc1N1CCN(C(=O)CN(/N=C/c2cccc(Cl)c2)C(=O)c2ccncc2)CC1 | > 16 µg/mL | –
O=C(CN(/N=C/c1ccccc1Cl)C(=O)c1ccncc1)N1CCN(c2cccc(C(F)(F)F)c2)CC1 | > 16 µg/mL | –

SMILES | MIC [1] | further results
O=C(CN(/N=C/c1ccc(Cl)cc1Cl)C(=O)c1ccncc1)N1CCN(c2cccc(Cl)c2)CC1 | > 16 µg/mL | –
O=C(CN(/N=C/c1cccc(Cl)c1)C(=O)c1ccncc1)N1CCN(c2ccc(F)cc2)CC1 | > 16 µg/mL | –
O=C(CN(/N=C/c1cccc(Cl)c1)C(=O)c1ccncc1)N1CCN(c2cccc(Cl)c2)CC1 | > 16 µg/mL | –
O=C(CN(/N=C/c1ccc(Cl)cc1)C(=O)c1ccncc1)N1CCN(c2ccc([N+](=O)[O-])cc2)CC1 | > 16 µg/mL | –
COc1ccccc1N1CCN(C(=O)CN(/N=C/c2ccc(Cl)cc2Cl)C(=O)c2ccncc2)CC1 | > 16 µg/mL | –
O=C(CN(/N=C/c1ccccc1Cl)C(=O)c1ccncc1)N1CCN(c2ccc(Cl)cc2)CC1 | > 16 µg/mL | –
O=C(CN(/N=C/c1ccc(Cl)cc1Cl)C(=O)c1ccncc1)N1CCN(Cc2ccc3c(c2)OCO3)CC1 | – | MIC [2]: 4 µg/mL (≈ 7.21 µM)
O=C(CN(/N=C/c1ccc(Cl)cc1Cl)C(=O)c1ccncc1)N1CCN(c2ccc([N+](=O)[O-])cc2)CC1 | > 16 µg/mL | –
O=C(CN(/N=C/c1cccc(Cl)c1)C(=O)c1ccncc1)N1CCN(Cc2ccc3c(c2)OCO3)CC1 | – | MIC [3]: 8 µg/mL (≈ 15.4 µM)
O=C(CN(/N=C/c1ccc(Cl)cc1Cl)C(=O)c1ccncc1)N1CCN(c2ccccc2)CC1 | > 16 µg/mL | –
O=C(CN(/N=C/c1ccccc1Cl)C(=O)c1ccncc1)N1CCN(Cc2ccc3c(c2)OCO3)CC1 | – | MIC [4]: 16 µg/mL (≈ 30.8 µM)
Cc1cccc(N2CCN(C(=O)CN(/N=C/c3cccc(Cl)c3)C(=O)c3ccncc3)CC2)c1 | > 16 µg/mL | –
O=C(CN(/N=C/c1ccc(Cl)cc1)C(=O)c1ccncc1)N1CCN(Cc2ccc3c(c2)OCO3)CC1 | – | MIC [3]: 8 µg/mL (≈ 15.4 µM)
O=C(CN(/N=C/c1ccccc1Cl)C(=O)c1ccncc1)N1CCN(c2cccc(Cl)c2Cl)CC1 | > 16 µg/mL | –
O=C(CN(/N=C/c1cccc(Cl)c1)C(=O)c1ccncc1)N1CCN(c2ccccc2)CC1 | > 16 µg/mL | –
NNC(=O)c1ccncc1 [ISONIAZID] | – | MIC [5]: 16 µg/mL (≈ 117 µM)
CO[C@H]1/C=C/O[C@@]2(C)Oc3c(C)c(O)c4c(O)c(c(/C=N/N5CCN(C)CC5)c(O)c4c3C2=O)NC(=O)/C(C)=C\C=C\[C@H](C)[C@H](O)[C@@H](C)[C@@H](O)[C@@H](C)[C@H](OC(C)=O)[C@@H]1C [RIFAMPIN] | – | MIC [6]: 16 µg/mL (≈ 19.4 µM)
